{"source": "ChEMBL document CHEMBL5233249", "about": "“Recent advancements in the development of heterocyclic anti-inflammatory agents” (Eur J Med Chem, 2020)", "key": {"[1]": {"species": "Rattus norvegicus", "experiment": "Antinociceptive activity in Wistar rat assessed as hot-plate change in latency by hot plate test method relative to control", "format": "organism-based", "conditions": "in vivo"}, "[2]": {"system": "Rattus norvegicus", "experiment": "Anti-inflammatory activity against formalin-induced foot paw edema in PO dosed rat at 10 mg/kg assessed as inhibition of edema measured after 1 hr relative to control", "format": "functional", "parameters": "scale not given: the % may be the effect or the level left"}, "[3]": {"system": "Mus musculus", "experiment": "Anti-inflammatory activity in Swiss albino mouse of Carrageenan-induced paw edema assessed as reduction in paw edema at 100 mg/kg measured after 1 hr (reference value: 142.5 +/- 5.6 uL)", "format": "functional"}, "[4]": {"system": "Mus musculus", "experiment": "Anti-inflammatory activity in Swiss albino mouse of Carrageenan-induced paw edema assessed as reduction in inflammation at 100 mg/kg measured after 2 hr relative to control", "format": "functional", "parameters": "scale not given: the % may be the effect or the level left"}, "[5]": {"system": "Mus musculus", "experiment": "Anti-inflammatory activity in Swiss albino mouse of Carrageenan-induced paw edema assessed as reduction in inflammation at 100 mg/kg measured after 1 hr relative to control", "format": "functional", "parameters": "scale not given: the % may be the effect or the level left"}, "[6]": {"system": "Mus musculus", "experiment": "Anti-inflammatory activity in Swiss albino mouse of Carrageenan-induced pleurisy assessed as reduction in total leukocytes at 50 mg/kg, po relative to control", "format": "functional", "parameters": "scale not given: the % may be the effect or the level left"}, "[7]": {"system": "Mus musculus", "experiment": "Anti-inflammatory activity in Swiss albino mouse of Carrageenan-induced paw edema assessed as reduction in paw edema at 100 mg/kg measured after 3 hr (reference value: 130 +/- 3.8 uL)", "format": "functional"}, "[8]": {"system": "Mus musculus", "experiment": "Anti-inflammatory activity in Swiss albino mouse of Carrageenan-induced paw edema assessed as reduction in inflammation at 100 mg/kg measured after 3 hr relative to control", "format": "functional", "parameters": "scale not given: the % may be the effect or the level left"}, "[9]": {"system": "Mus musculus", "experiment": "Anti-inflammatory activity in Swiss albino mouse of Carrageenan-induced paw edema assessed as reduction in paw edema at 100 mg/kg measured after 2 hr (reference value: 140 +/- 6.3 uL)", "format": "functional"}, "[10]": {"system": "Mus musculus", "experiment": "Anti-inflammatory activity in Swiss albino mouse of Carrageenan-induced paw edema assessed as reduction in inflammation at 100 mg/kg measured after 4 hr relative to control", "format": "functional", "parameters": "scale not given: the % may be the effect or the level left"}, "[11]": {"system": "Mus musculus", "experiment": "Anti-inflammatory activity in Swiss albino mouse of Carrageenan-induced pleurisy assessed as reduction in TNFalpha levels at 100 mg/kg, po", "format": "functional"}, "[12]": {"system": "Mus musculus", "experiment": "Anti-inflammatory activity in Swiss albino mouse of Carrageenan-induced paw edema assessed as reduction in paw edema at 100 mg/kg measured after 4 hr (reference value: 126.7 +/- 6.9 uL)", "format": "functional"}, "[13]": {"system": "Mus musculus", "experiment": "Anti-inflammatory activity in Swiss albino mouse of Carrageenan-induced pleurisy assessed as reduction in migration of leukocytes at 100 mg/kg, po relative to control", "format": "functional", "parameters": "scale not given: the % may be the effect or the level left"}, "[14]": {"system": "Mus musculus", "experiment": "Anti-inflammatory activity in Swiss albino mouse of Carrageenan-induced pleurisy assessed as reduction in migration of leukocytes at 100 mg/kg, po (reference value: 5.2 +/- 0.34)", "format": "functional"}, "[15]": {"system": "Rattus norvegicus", "experiment": "Anti-ulcerative activity in Carrageenan-induced paw edema Swiss albino rat ulcer model assessed as inhibition of ulcer index at 10 mg/kg,po", "format": "functional"}, "[16]": {"system": "Mus musculus", "experiment": "Analgesic activity in PO dosed Swiss albino mouse assessed as protection of paw edema measured after 2 hrs at 20 mg/kg relative to control", "format": "functional"}, "[17]": {"experiment": "Anti-inflammatory activity assessed as protein denaturation using bovine serum albumin at 250 uM relative to control", "format": "functional"}, "[18]": {"experiment": "Anti-inflammatory activity assessed as protein denaturation using egg albumin at 500 uM relative to control", "format": "functional"}, "[19]": {"experiment": "Anti-inflammatory activity assessed as protein denaturation using egg albumin at 250 uM relative to control", "format": "functional"}, "[20]": {"experiment": "Anti-inflammatory activity assessed as protein denaturation using bovine serum albumin at 500 uM relative to control", "format": "functional"}, "[21]": {"experiment": "Anti-inflammatory activity assessed as protein denaturation using egg albumin at 100 uM relative to control", "format": "functional"}, "[22]": {"experiment": "Anti-inflammatory activity assessed as protein denaturation using bovine serum albumin at 100 uM relative to control", "format": "functional"}, "[23]": {"system": "RAW264.7", "experiment": "Anti-inflammatory activity in mouse RAW264.7 cells assessed as inhibition of LPS-induced reduction in cytokine levels relative to control", "format": "functional", "parameters": "scale not given: the % may be the effect or the level left"}, "[24]": {"biological_target": "T1, Prostaglandin G/H synthase 2 (Homo sapiens, UniProt P35354)", "T1 sequence (P35354 whole entry)": "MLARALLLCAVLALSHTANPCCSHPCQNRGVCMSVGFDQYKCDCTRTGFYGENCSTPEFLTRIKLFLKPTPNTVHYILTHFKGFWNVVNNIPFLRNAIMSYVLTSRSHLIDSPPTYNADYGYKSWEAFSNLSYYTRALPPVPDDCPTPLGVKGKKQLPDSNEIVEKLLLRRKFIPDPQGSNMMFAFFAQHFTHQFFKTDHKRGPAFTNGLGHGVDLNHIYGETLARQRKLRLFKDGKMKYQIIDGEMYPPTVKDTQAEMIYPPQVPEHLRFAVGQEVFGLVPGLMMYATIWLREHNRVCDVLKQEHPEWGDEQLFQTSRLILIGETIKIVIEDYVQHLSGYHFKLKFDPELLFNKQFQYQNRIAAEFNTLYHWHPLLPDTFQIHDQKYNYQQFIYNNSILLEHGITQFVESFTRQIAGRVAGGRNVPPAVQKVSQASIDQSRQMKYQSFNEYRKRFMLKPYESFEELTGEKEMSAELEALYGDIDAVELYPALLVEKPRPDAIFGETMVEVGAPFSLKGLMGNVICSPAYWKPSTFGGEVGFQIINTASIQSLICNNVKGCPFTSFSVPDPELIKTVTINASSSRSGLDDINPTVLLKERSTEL", "experiment": "Inhibition of COX-2 (unknown origin) at 0.1 uM"}, "[25]": {"system": "Rattus norvegicus", "experiment": "Anti-inflammatory activity in Carrageenan-induced paw edema in Wistar albino rat assessed as inhibition of paw edema measured after 1 hr relative to control", "format": "functional"}, "[26]": {"system": "Rattus norvegicus", "experiment": "Anti-inflammatory activity in Carrageenan-induced paw edema in Wistar albino rat assessed as inhibition of paw edema measured after 6 hr relative to control", "format": "functional"}, "[27]": {"system": "Rattus norvegicus", "experiment": "Anti-inflammatory activity in Carrageenan-induced paw edema in Wistar albino rat assessed as inhibition of paw edema measured after 2 hr relative to control", "format": "functional"}, "[28]": {"system": "Rattus norvegicus", "experiment": "Anti-inflammatory activity in Carrageenan-induced-Wistar albino rat model assessed as reduction in volume of paw edema measured after 4 hrs", "format": "functional"}, "[29]": {"system": "Rattus norvegicus", "experiment": "Anti-ulcerative activity in aspirin induced Wistar rat ulcer model assessed as inhibition of ulcer index at 20 mg/kg,po", "format": "functional"}, "[30]": {"system": "Rattus norvegicus", "experiment": "Anti-inflammatory activity against formalin-induced foot paw edema in PO dosed rat at 10 mg/kg assessed as reduction in volume of edema measured after 5 hr relative to control", "format": "functional", "parameters": "scale not given: the % may be the effect or the level left"}, "[31]": {"experiment": "Selectivity index, ratio of IC50 for ovine COX1 to IC50 for recombinant human COX2"}, "[32]": {"system": "RAW264.7", "experiment": "Anti-inflammatory activity in mouse RAW264.7 cells assessed as inhibition of LPS-induced TNFalpha production measured after 24 hrs by EIA method relative to control", "format": "functional", "parameters": "scale not given: the % may be the effect or the level left"}}, "data": [{"molecule": "CCOC(=O)c1c(SC)nn(C(=O)CSc2nnc(CCCOc3ccc(C)cc3C(=O)c3ccc(F)cc3)o2)c1N", "values": [{"measurement": "Activity", "setting": "[1]", "value": 92.3, "unit": "%"}, {"measurement": "Activity", "setting": "[2]", "value": 52.17, "unit": "%"}]}, {"molecule": "CN1CCN(C(=O)c2cnn(-c3ccccc3)c2)CC1", "values": [{"measurement": "Activity", "setting": "[3]", "value": 115.7, "unit": "µL"}, {"measurement": "Activity", "setting": "[4]", "value": 37, "unit": "%"}, {"measurement": "Activity", "setting": "[5]", "value": 19, "unit": "%"}, {"measurement": "Activity", "setting": "[6]", "value": 34.5, "unit": "%"}, {"measurement": "Activity", "setting": "[7]", "value": 85.7, "unit": "µL"}, {"measurement": "Activity", "setting": "[8]", "value": 34, "unit": "%"}, {"measurement": "Activity", "setting": "[9]", "value": 88.6, "unit": "µL"}, {"measurement": "Activity", "setting": "[10]", "value": 39, "unit": "%"}, {"measurement": "Activity", "setting": "[11]", "value": 2.6}, {"measurement": "Activity", "setting": "[12]", "value": 77.1, "unit": "µL"}, {"measurement": "Activity", "setting": "[13]", "value": 36.5, "unit": "%"}, {"measurement": "Activity", "setting": "[14]", "value": 3.3}]}, {"molecule": "CC1=NN(c2ccc(Cl)cc2)C(=O)/C1=N\\Nc1ccc(-c2nc3ccccc3[nH]2)cc1", "values": [{"measurement": "UI", "setting": "[15]", "value": 0.53}, {"measurement": "Activity", "setting": "[16]", "value": 67, "unit": "%"}]}, {"molecule": "COc1ccc(NC(=O)c2cc(-c3ccncc3)n[nH]2)cc1", "values": [{"measurement": "Activity", "setting": "[17]", "value": 80, "unit": "%"}, {"measurement": "Activity", "setting": "[18]", "value": 95, "unit": "%"}, {"measurement": "Activity", "setting": "[19]", "value": 85, "unit": "%"}, {"measurement": "Activity", "setting": "[20]", "value": 90, "unit": "%"}, {"measurement": "Activity", "setting": "[21]", "value": 60, "unit": "%"}, {"measurement": "Activity", "setting": "[22]", "value": 65, "unit": "%"}]}, {"molecule": "O=c1[nH]c(-c2ccccn2)nc2sc3c(c12)CCCC3", "values": [{"measurement": "Activity", "setting": "[23]", "value": 70, "unit": "%"}]}, {"molecule": "CC(=O)N(CN1C(=O)/C(=C\\c2nnc(-c3ccc(-c4ccncc4)cc3)s2)c2ccccc21)C1C(c2ccc(O)cc2)=NNC1S", "note": "(configuration not stated)", "values": [{"measurement": "IC50", "setting": "[24]", "value": 71.1, "unit": "µM"}, {"measurement": "inhibition (INH)", "setting": "[25]", "value": 20, "unit": "%"}, {"measurement": "inhibition (INH)", "setting": "[26]", "value": 57.14, "unit": "%"}, {"measurement": "inhibition (INH)", "setting": "[27]", "value": 10.53, "unit": "%"}]}, {"molecule": "Cc1nn(-c2ccccc2)c2c1C(c1ccccc1[N+](=O)[O-])C(C#N)=C(/N=C/c1ccccc1)O2", "note": "(configuration not stated)", "values": [{"measurement": "ED50", "setting": "[28]", "value": 858, "unit": "µmol/kg"}]}, {"molecule": "CS(=O)(=O)c1ccc(-n2cc(/C=C3\\NC(=S)N(c4ccccc4)C3=O)c(-c3ccccc3)n2)cc1", "values": [{"measurement": "UI", "setting": "[29]", "value": 3.87}, {"measurement": "Activity", "setting": "[30]", "value": 56, "unit": "%"}, {"measurement": "Selectivity Index", "setting": "[31]", "value": 9.15}]}, {"molecule": "COc1cc(OC)c2c(c1)OCC/C(=C\\Cc1ccccn1)C2=O", "values": [{"measurement": "Activity", "setting": "[32]", "value": 92.5, "unit": "%"}]}]}
